Reference: patent US11779529B2, “Personal care composition” (Colgate-Palmolive Company, priority 2017, dated 2023)

Test system: Collagen I
Assay: Collagen I release from human dermal fibroblast cells, COL1A1 ELISA of supernatants
Assay type: cell-based
Conditions: 1 mL composition, 24 hours, 37° C., 5% CO2, average of 3 tests
Experimental: Each of the compositions of Table 3 was tested on human dermal fibroblast cells (Thermo Fisher Scientific, Gaithersburg, Md.) as follows: human dermal fibroblast cells were seeded in 6-well plates and grow until about 80% confluency. 1 mL of each composition was added to the wells in triplicate per composition. The cells were then incubated at 37° C., 5% CO2 for 24 hours and the supernatants were collected and analyzed for Collagen I release. Collagen I release in the supernatants was measured using COL1A1 ELISA kit (MyBioSource, San Diego, Calif.). The data in Table 3 represents the average value for 3 tests.

SMILES: NCCS(=O)(=O)O [Solvent + 0.001% Taurine, Taurine]
- Collagen I: 1.9 ng/mL
